In PubChem BioAssay AID1963421 (Molecular Pharmacology Branch, DTP, NCI, 2024):
Several values for one entry are separate records, joined by “and”; a condition that tells them apart may be missing. Identical values can stand only once. Values belong to the compound of their own block, whether it stands above or below them.

System: 519858-162-T-J1-PDC complex spheroid growth, % test/control
Test: Anticancer human tumor 519858-162-T-J1-PDC patient-derived colon adenocarcinoma cell line growth inhibition [Asc]
Conditions: for IC50: curve of first compound; for viability, T/C: stronger effect = lower value
How it was run: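 Complex solid-tumor spheroids incorporating human endothelial and mesenchymal stem cells received single agents or combinations over half-log dilution ranges anchored to clinical Cmax.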

[1] = second compound 0.0316 µM, first compound 0.00316 µM
[2] = second compound 0.0316 µM, first compound 0.01 µM
[3] = second compound 0.0316 µM, first compound 0.0316 µM
[4] = second compound 0.0316 µM, first compound 0.1 µM
[5] = second compound 0.0316 µM, first compound 0.316 µM
[6] = second compound 0.0316 µM, first compound 1 µM
[7] = second compound 0.1 µM, first compound 0.00316 µM
[8] = second compound 0.1 µM, first compound 0.01 µM
[9] = second compound 0.1 µM, first compound 0.0316 µM
[10] = second compound 0.1 µM, first compound 0.1 µM
[11] = second compound 0.1 µM, first compound 0.316 µM
[12] = second compound 0.1 µM, first compound 1 µM
[13] = second compound 0.316 µM, first compound 0.00316 µM
[14] = second compound 0.316 µM, first compound 0.01 µM
[15] = second compound 0.316 µM, first compound 0.0316 µM
[16] = second compound 0.316 µM, first compound 0.1 µM
[17] = second compound 0.316 µM, first compound 0.316 µM
[18] = second compound 0.316 µM, first compound 1 µM
[19] = second compound 1 µM, first compound 0.00316 µM
[20] = second compound 1 µM, first compound 0.01 µM
[21] = second compound 1 µM, first compound 0.0316 µM
[22] = second compound 1 µM, first compound 0.1 µM
[23] = second compound 1 µM, first compound 0.316 µM
[24] = second compound 1 µM, first compound 1 µM
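Also: seven day drug exposure begun three days after spheroid seeding.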
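For viability, T/C in this document: 100% = DMSO vehicle wells and lower values mean less viable spheroid.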

IC50 (second compound 0.00316 µM): > 3000 nM
IC50 (second compound 0.01 µM): > 3000 nM
IC50 (second compound 0.0316 µM): > 3000 nM
IC50 (second compound 0.1 µM): > 3000 nM
IC50 (second compound 0.316 µM): > 3000 nM
IC50 (second compound 1 µM): > 3000 nM
SMILES: CCN1C(C(=O)NC23CCC(C(=O)O)(CC2)CC3)C(c2cccc(Cl)c2F)C2(C(=O)Nc3cc(Cl)ccc32)C12CCCCC2 (configuration not stated) + CNC(C)C(=O)NC1CN(S(=O)(=O)c2cccc(S(=O)(=O)N3CCC4CCC(C(=O)NC(c5ccccc5)c5ccccc5)N4C(=O)C(NC(=O)C(C)NC)C3)c2)CCC2CCC(C(=O)NC(c3ccccc3)c3ccccc3)N2C1=O
viability, T/C (second compound 0.00316 µM, first compound 0.00949 µM): 92%
viability, T/C (second compound 0.00316 µM, first compound 0.03 µM): 118%
viability, T/C (second compound 0.00316 µM, first compound 0.0949 µM): 111%
viability, T/C (second compound 0.00316 µM, first compound 0.3 µM): 83.8%
viability, T/C (second compound 0.00316 µM, first compound 0.949 µM): 108%
viability, T/C (second compound 0.00316 µM, first compound 3 µM): 65.8%
viability, T/C (second compound 0.01 µM, first compound 0.00949 µM): 101%
viability, T/C (second compound 0.01 µM, first compound 0.03 µM): 106%
viability, T/C (second compound 0.01 µM, first compound 0.0949 µM): 112%
viability, T/C (second compound 0.01 µM, first compound 0.3 µM): 80.1%
viability, T/C (second compound 0.01 µM, first compound 0.949 µM): 89.2%
viability, T/C (second compound 0.01 µM, first compound 3 µM): 82.6%
viability, T/C (second compound 0.0316 µM, first compound 0.00949 µM): 96.4%
viability, T/C (second compound 0.0316 µM, first compound 0.03 µM): 73.9%
viability, T/C (second compound 0.0316 µM, first compound 0.0949 µM): 122%
viability, T/C (second compound 0.0316 µM, first compound 0.3 µM): 94%
viability, T/C (second compound 0.0316 µM, first compound 0.949 µM): 83.5%
viability, T/C (second compound 0.0316 µM, first compound 3 µM): 82.1%
viability, T/C (second compound 0.1 µM, first compound 0.00949 µM): 94.7%
viability, T/C (second compound 0.1 µM, first compound 0.03 µM): 73.8%
viability, T/C (second compound 0.1 µM, first compound 0.0949 µM): 82.1%
viability, T/C (second compound 0.1 µM, first compound 0.3 µM): 93.2%
viability, T/C (second compound 0.1 µM, first compound 0.949 µM): 80.1%
viability, T/C (second compound 0.1 µM, first compound 3 µM): 89.6%
viability, T/C (second compound 0.316 µM, first compound 0.00949 µM): 96%
viability, T/C (second compound 0.316 µM, first compound 0.03 µM): 115%
viability, T/C (second compound 0.316 µM, first compound 0.0949 µM): 92.8%
viability, T/C (second compound 0.316 µM, first compound 0.3 µM): 79.6%
viability, T/C (second compound 0.316 µM, first compound 0.949 µM): 81.3%
viability, T/C (second compound 0.316 µM, first compound 3 µM): 105%
viability, T/C (second compound 1 µM, first compound 0.00949 µM): 78.9%
viability, T/C (second compound 1 µM, first compound 0.03 µM): 84.7%
viability, T/C (second compound 1 µM, first compound 0.0949 µM): 66.1%
viability, T/C (second compound 1 µM, first compound 0.3 µM): 112%
viability, T/C (second compound 1 µM, first compound 0.949 µM): 82.2%
viability, T/C (second compound 1 µM, first compound 3 µM): 83.1%

SMILES: COc1c(OCCCN2CCOCC2)ccc2c3n(c(=NC(=O)c4cnc(N)nc4)nc12)CCN3
viability, T/C (compound 0.00316 µM): 88.7% and 89.2% and 87.3%
viability, T/C (compound 0.01 µM): 106% and 82.6% and 84%
viability, T/C (compound 0.0316 µM): 91.1% and 79.6% and 45.8%
viability, T/C (compound 0.1 µM): 62.9% and 81.2% and 48.9%
viability, T/C (compound 0.316 µM): 50.7% and 65.9% and 55.2%
viability, T/C (compound 1 µM): 29.3% and 51.5% and 45.5%

IC50 (second compound 0.00316 µM): 316 nM
IC50 (second compound 0.01 µM): 224 nM
IC50 (second compound 0.0316 µM): 284 nM
IC50 (second compound 0.1 µM): 241 nM
IC50 (second compound 0.316 µM): 254 nM
IC50 (second compound 1 µM): 268 nM
SMILES: O=C(c1ccc(F)c(F)c1Nc1ccc(I)cc1F)N1CC(O)([C@@H]2CCCCN2)C1 + CNC(C)C(=O)NC1CN(S(=O)(=O)c2cccc(S(=O)(=O)N3CCC4CCC(C(=O)NC(c5ccccc5)c5ccccc5)N4C(=O)C(NC(=O)C(C)NC)C3)c2)CCC2CCC(C(=O)NC(c3ccccc3)c3ccccc3)N2C1=O
viability, T/C (second compound 0.00316 µM, first compound 0.00316 µM): 119%
viability, T/C (second compound 0.00316 µM, first compound 0.01 µM): 133%
viability, T/C (second compound 0.00316 µM, first compound 0.0316 µM): 95.9%
viability, T/C (second compound 0.00316 µM, first compound 0.1 µM): 111%
viability, T/C (second compound 0.00316 µM, first compound 0.316 µM): 49.7%
viability, T/C (second compound 0.00316 µM, first compound 1 µM): 13.8%
viability, T/C (second compound 0.01 µM, first compound 0.00316 µM): 93.9%
viability, T/C (second compound 0.01 µM, first compound 0.01 µM): 112%
viability, T/C (second compound 0.01 µM, first compound 0.0316 µM): 74.7%
viability, T/C (second compound 0.01 µM, first compound 0.1 µM): 86.2%
viability, T/C (second compound 0.01 µM, first compound 0.316 µM): 34.6%
viability, T/C (second compound 0.01 µM, first compound 1 µM): 18.8%
viability, T/C [1]: 121%
viability, T/C [2]: 107%
viability, T/C [3]: 79.7%
viability, T/C [4]: 101%
viability, T/C [5]: 44.2%
viability, T/C [6]: 14.3%
viability, T/C [7]: 99.4%
viability, T/C [8]: 86.4%
viability, T/C [9]: 107%
viability, T/C [10]: 84.5%
viability, T/C [11]: 39.2%
viability, T/C [12]: 13.5%
viability, T/C [13]: 80.6%
viability, T/C [14]: 122%
viability, T/C [15]: 86.8%
viability, T/C [16]: 79.2%
viability, T/C [17]: 43.5%
viability, T/C [18]: 16%
viability, T/C [19]: 77.5%
viability, T/C [20]: 89.2%
viability, T/C [21]: 117%
viability, T/C [22]: 79.7%
viability, T/C [23]: 45.4%
viability, T/C [24]: 18.6%

IC50 (second compound 0.0316 µM): 283 nM
IC50 (second compound 0.1 µM): 212 nM
IC50 (second compound 0.316 µM): 164 nM
IC50 (second compound 1 µM): 232 nM
IC50 (second compound 3.16 µM): 235 nM
IC50 (second compound 10 µM): 122 nM
SMILES: O=C(c1ccc(F)c(F)c1Nc1ccc(I)cc1F)N1CC(O)([C@@H]2CCCCN2)C1 + Cc1c(S(C)(=O)=O)c(-c2cc(F)cc(N3CCN(c4ccc(NS(=O)(=O)c5ccc(NC(CCN6CCC(C(=O)OCCCP(=O)(O)O)CC6)CSc6ccccc6)c(S(=O)(=O)C(F)(F)F)c5)cc4)CC3)c2)c(-c2ccc(Cl)cc2)n1C(C)C
viability, T/C [1]: 113%
viability, T/C [2]: 84.2%
viability, T/C [3]: 78.6%
viability, T/C [4]: 115%
viability, T/C [5]: 44.9%
viability, T/C [6]: 14.5%
viability, T/C [7]: 93.6%
viability, T/C [8]: 91.4%
viability, T/C [9]: 76.5%
viability, T/C [10]: 50.8%
viability, T/C [11]: 54.6%
viability, T/C [12]: 18.9%
viability, T/C [13]: 81.8%
viability, T/C [14]: 92.2%
viability, T/C [15]: 110%
viability, T/C [16]: 63.8%
viability, T/C [17]: 39.2%
viability, T/C [18]: 24.1%
viability, T/C [19]: 108%
viability, T/C [20]: 92.1%
viability, T/C [21]: 72.5%
viability, T/C [22]: 54.7%
viability, T/C [23]: 66%
viability, T/C [24]: 19.5%
viability, T/C (second compound 3.16 µM, first compound 0.00316 µM): 61.8%
viability, T/C (second compound 3.16 µM, first compound 0.01 µM): 82.7%
viability, T/C (second compound 3.16 µM, first compound 0.0316 µM): 60.3%
viability, T/C (second compound 3.16 µM, first compound 0.1 µM): 72%
viability, T/C (second compound 3.16 µM, first compound 0.316 µM): 43.3%
viability, T/C (second compound 3.16 µM, first compound 1 µM): 12.9%
viability, T/C (second compound 10 µM, first compound 0.00316 µM): 75.6%
viability, T/C (second compound 10 µM, first compound 0.01 µM): 59.8%
viability, T/C (second compound 10 µM, first compound 0.0316 µM): 47.1%
viability, T/C (second compound 10 µM, first compound 0.1 µM): 60.5%
viability, T/C (second compound 10 µM, first compound 0.316 µM): 39.3%
viability, T/C (second compound 10 µM, first compound 1 µM): 9.69%
